Data set [1] deals with M5076 reticulum cell sarcoma. Put plainly: Activity in mice bearing ip M5076 reticulum cell sarcoma. In kind it is in vivo, female B6D2F1 mice. As to the method:
(§1) Compound I was also evaluated for activity against solid tumors as follows:
(§2) One-half ml of a 10 percent (v:v) brei of tumor cells prepared from solid B16 melanoma or M5076 reticulum cell sarcoma was implanted ip in female B6D2F1 mice which were randomized to treatment groups of 8 animals each. Treatment was initiated 24 hours after tumer inoculation and was continued daily for 10 days (cisplatin was administered q4Dx4 on Days 1, 5, 9 and 13). Mice were monitored daily for 60 days, and the median day of death was determined compared to three groups of untreated controls to provide percent increase in lifespan (ILS). ILS values of greater than or equal to 50 percent represent biologically significant antitumor effects. Cisplatin was curative in M5076 with 6/8 tumor-free survivors on Day 60 at the top dose level.

The subject of another data set is B16 melanoma. Kind of data set: Activity in mice bearing ip B16 melanoma. The data set is classed as in vivo, female B6D2F1 mice. As for the experimental part: as §1, §2
In a further data set the test system is P388 leukemia. Kind of data set: Evaluation in mice bearing ip P388 leukemia. The data set is classed as in vivo, female B6D2F1 mice. As for the experimental part:
Compound I was also evaluated in mice bearing P388 Leukemia as follows:
Compound I was administered to the mice as a solution by first dissolving it in N,N-dimethylacetamide, adding an equal volume of Cremophor EL and then 8 volumes of water. The drug concentration was such that the desired dose was delivered in a volume of 0.5 ml per mouse. Dilutions from the highest dose in a dose-response study were made by the addition of water so that organic component of the formulation decreased with dose reduction; the drug remained in solution.
10^6 P388 leukemia cells were implanted intraperitoneal in female B6D2F1 mice which were randomized to treatment groups of six animals each. Treatment was initiated 24 hours after tumor implantation and was continued daily for five days (Cisplatin was administered on Days 1 and 5 for the Group 1 mice). Mice were weighted as groups on Days 1, 5 and 9 to provide an indication of drug toxicity. Mice were monitored for survival daily for 45 days, and the median day of death was determined compared to three groups of untreated controls to provide percent increase in lifespan (ILS). ILS values of greater than or equal to 40 percent represent actual reduction in tumor cell burden during the course of treatment and are taken as indications of biologically significant antitumor effect.

In data set [2] the test system is Intraperitoneally Administered Phenylquinone. Kind of data set: Phenylquinone Assay for Analgesia (writhing). The data set is classed as in vivo, mice. As to conditions: for Mean Writhes per Animal / No. Writhes / % Change Relative to Control: 25 mg/kg; for No. Writhes: total of group; for % Change Relative to Control: writhes per animal; for Analgesic Activity: summary. As for the experimental part: d. Phenylquinone Assay for Analgesia
Test compound is injected subcutaneously into mice. After 30 minutes, phenylquinone is injected intraperitoneally to cause pain as indicated by writhing.
Test compound was administered subcutaneously in sesame oil at concentrations up to 5 mg per ml depending on the test compound dosage protocol. The highest dose was 50 mg per Kg. Control groups received sesame oil subcutaneously.

In data set [3] the test system is Phorbol Myristate Acetate (PMA) Induced Topical Inflammation of the Mouse Ear. Kind of data set: Mouse Ear Anti-Inflammatory Assay (PMA, topical). The data set is classed as in vivo. As to conditions: for Mean Ear Weight ± S.E.: Table IV, in mg; for Anti-inflammatory Activity: summary. As to the method:
a. Mouse Ear Anti-Inflammatory Assay
Test compound and phorbol myristate acetate (PMA) are topically applied simultaneously to the pinnae of the ears of mice. Three hours twenty minutes after application, mice are sacrificed, ears removed and standard sized bores taken. Edema (inflammation) is measured as the difference in weight between control and treated ears.
The vheicle or carrier for the compounds used in the inflammatory and analgesic assays was as follows; For the mouse ear inflammatory assay, the vehicle was acetone. Controls received 25 microliters of acetone. Test compounds were applied to the experimental animals in 25 microliter volumes. For the sperm motility and fertilized sea urchin egg assays, the compounds were dissolved in 10 microliters undenatured ethanol.

The mark [4] stands for this setting: Group 2, cisplatin 1 mg/kg ip, Days 1-5.
Setting [5] is: Group 2, cisplatin 2 mg/kg ip, Days 1-5.
[6] abbreviates: Group I, cisplatin 3 mg/kg ip, Days 1 and 5.
The mark [7] stands for this setting: Group I, cisplatin 6 mg/kg ip, Days 1 and 5.

With `N.N.[Cl][Pt][Cl]` [Cisplatin, reference compound], the “Increase to Lifespan” value in data set [1] (cisplatin 3 mg/kg ip) is on record as 121%; in data set [1] (cisplatin 5 mg/kg ip) it was > 200%; in the data set with B16 melanoma (cisplatin 3 mg/kg ip) it was 36%; in the data set on B16 melanoma (cisplatin 6 mg/kg ip), 77%; in the data set on P388 leukemia (setting [4]), 75%; in the data set on P388 leukemia (setting [5]), 200%. Also, the figures for the “Increase to Lifespan” value with P388 leukemia (setting [6]) and in the data set with P388 leukemia (setting [7]) were 127% and 177%, respectively. The “Median Survival Time” value in data set [1] (cisplatin 3 mg/kg ip) is 46.5 days; in data set [1] (cisplatin 5 mg/kg ip), > 60 days; in the data set with B16 melanoma (cisplatin 3 mg/kg ip), 30 days; with B16 melanoma (cisplatin 6 mg/kg ip), 39 days; in the data set on P388 leukemia (setting [4]), 17.5 days; in the data set on P388 leukemia (setting [5]) it was 30 days. Also, the results for the “Median Survival Time” value with P388 leukemia (setting [6]) and in the data set with P388 leukemia (setting [7]) were 25 days and 30.5 days, respectively. For the same compound, the “Weight Change on Day 9” value in data set [1] (cisplatin 3 mg/kg ip) is “+0.1 gm”; in data set [1] (cisplatin 5 mg/kg ip), -1.6 gm; with B16 melanoma (cisplatin 3 mg/kg ip), “+1.6 gm”; in the data set on B16 melanoma (cisplatin 6 mg/kg ip), “+0.5 gm”. The “tumor-free survivors on Day 60” value in data set [1] (top dose level of cisplatin) is 6/8. The “Weight Change Day 5” value in the data set with P388 leukemia (setting [4]) is -0.2 gm; in the data set with P388 leukemia (setting [5]), -2.5 gm; with P388 leukemia (setting [6]), “+0.3 gm”; in the data set with P388 leukemia (setting [7]), -1.2 gm. Besides, the “Weight Change Day 9” value is “+0.1 gm” in the data set with P388 leukemia (setting [4]), -0.9 gm in the data set with P388 leukemia (setting [5]), “+1.1 gm” with P388 leukemia (setting [6]) and -1.1 gm in the data set with P388 leukemia (setting [7]).
For the compound `CC(C)=CCCC(C)C1CCC(C)c2c1cc(C)c(O)c2OC1OCC(O)C(O)C1O` (stereo not shown) [Compound IX], in data set [2], the “Mean Writhes per Animal” value is on record as 6.8, the “No. Writhes” value is given as 68, the “% Change Relative to Control” value was -26% and the “Analgesic Activity” value is on record as “Active”. The “Mean Ear Weight ± S.E.” value in data set [3] (25.0 ug/ear) is on record as 15.85 ± 2.51. Also, the “Mean Ear Weight ± S.E.” value in data set [3] (50.0 ug/ear) was 14.04 ± 2.38. Besides, the “Anti-inflammatory Activity” value in data set [3] was “Active”.
For the compound `CC(=O)OC1COC(Oc2c(O)c(C)cc3c2C(C)CCC3C(C)CCC=C(C)C)C(O)C1O` (stereo not shown) [Compound VIII], the “Analgesic Activity” value in data set [2] is “Active”. For the same compound, the entries for the “Mean Ear Weight ± S.E.” value in data set [3] (25.0 ug/ear) and in data set [3] (50.0 ug/ear) were 13.93 ± 2.59 and 12.07 ± 1.69, respectively. Besides, in data set [3], the “Anti-inflammatory Activity” value is listed as “Active”.
Take `COc1c(C)c2c3c(c1O)C(C)CCC3C(C)CC2C=C(C)C` (stereo not shown) [Compound XII]: in data set [2], the “Mean Writhes per Animal” value is recorded as 12.5, the “No. Writhes” value stood at 25 and the “% Change Relative to Control” value was “+6%”.
Turning to `CC(=O)OC1=C(C)C2(O)C3=C(C1=O)C(C)CCC3C(C)CC2C=C(C)C` (stereo not shown) [Compound XI], in data set [2], the “Mean Writhes per Animal” value came to 12.3, the “No. Writhes” value came to 37 and the “% Change Relative to Control” value is on record as “+4%”.
As for `CC(=O)OC1C(O)COC(Oc2c(O)c(C)cc3c2C(C)CCC3C(C)CCC=C(C)C)C1O` (stereo not shown) [Compound X], the “Mean Ear Weight ± S.E.” value in data set [3] (50.0 ug/ear) is reported as 10.64 ± 1.93. For the same compound, the “Anti-inflammatory Activity” value in data set [3] is “Active”.
In turn, `COc1ccc2c(c1)c(CC(=O)O)c(C)n2C(=O)c1ccc(Cl)cc1` [indomethacin, reference compound] came in with a decrease in edema in data set [3] (50 microgram) of 50%.

The values are drawn from US4849410A, “Pseudopterosin and synthetic derivatives thereof” (The Regents of the University of California, priority 1987, dated 1989).
